Assay results reported in patent US20230339981A1, “KRAS G12D MODULATING COMPOUNDS” (priority 2022, published 2023).

How the values were obtained:
[1] = tested on: GP2D (KRAS G12D) cells; assay: 2D cell viability assay (CellTiter-Glo); format: cell-based; settings: GP2d, 96 h, 4 days
Summary of the method: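 GP2D (KRAS G12D) cells, 1000/well in RPMI + 10% FBS, were plated onto compound (1:3 DMSO series) and grown 4 days at 37 °C, 5% CO2 in 2D. CellTiter-Glo luminescence was read; EC50 is the concentration giving 50% signal decrease, from sigmoidal fit.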

[2] = target: GDP-loaded KRAS G12D (Homo sapiens (Human), UniProt P01116, G12D); assay: KRAS G12D (GDP) biochemical assay (TR-FRET probe displacement); format: binding; settings: 2 hours
Summary of the method: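 Compound pre-incubated 30 min with GDP-loaded KRAS G12D in 50 mM Hepes pH 7.4, 150 mM NaCl, 5 mM MgCl2, 0.005% Tween-20, then Eu-streptavidin and TR-FRET probe added. After 2 h at room temperature, TR-FRET ratio read; IC50 is 50% ratio decrease, sigmoidal fit.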

Chain of GDP-loaded KRAS G12D (P01116-2 other isoform, or with tags, fused parts or gaps G12D): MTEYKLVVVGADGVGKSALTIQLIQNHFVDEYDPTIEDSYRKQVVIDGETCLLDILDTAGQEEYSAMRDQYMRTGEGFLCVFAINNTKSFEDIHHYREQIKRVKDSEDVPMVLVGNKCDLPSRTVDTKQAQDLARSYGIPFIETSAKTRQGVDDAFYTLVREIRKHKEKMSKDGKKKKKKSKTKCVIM

C#Cc1c(F)ccc2cccc(-c3nc4c5c(nc(OCC6(CN7CCC(C(F)(F)F)CC7)CC6)nc5c3F)N3C[C@H]5CC[C@H](N5)[C@@H]3[C@@H](C)C4)c12 [Example 146, (5S,5aS,6S,9R)-2-(8-ethynyl-7-fluoronaphthalen-1-yl)-1-fluoro-5-methyl-12-((1-((4-(trifluoromethyl)piperidin-1-yl)methyl)cyclopropyl)methoxy)-4,5,5a,6,7,8,9,10-octahydro-3,10a,11,13,14-pentaaza-6,9-methanonaphtho[1,8-ab]heptalene]
EC50 [1]: 100 nM
IC50 [2]: 15.6 nM

C#Cc1c(F)ccc2cc(O)cc(-c3nc4c5c(nc(OC[C@@]67CCCN6[C@H](COc6cc(C(F)(F)F)ncn6)CC7)nc5c3F)N3C[C@H]5CC[C@H](N5)[C@H]3CC4)c12 [Example 149, 5-ethynyl-6-fluoro-4-((5aR,6S,9R)-1-fluoro-12-(((3S,7aS)-3-(((6-(trifluoromethyl)pyrimidin-4-yl)oxy)methyl)tetrahydro-1H-pyrrolizin-7a(5H)-yl)methoxy)-4,5,5a,6,7,8,9,10-octahydro-3,10a,11,13,14-pentaaza-6,9-methanonaphtho[1,8-ab]heptalen-2-yl)naphthalen-2-ol]
EC50 [1]: 0.3 nM
IC50 [2]: < 0.1 nM

C#Cc1c(F)ccc2cccc(-c3nc4c5c(nc(OC[C@@]67CCCN6[C@H](COC(C(F)(F)F)C(F)(F)F)CC7)nc5c3F)N3C[C@H]5CC[C@H](N5)[C@H]3CC4)c12 [Example 150, (5aR,6S,9R)-2-(8-ethynyl-7-fluoronaphthalen-1-yl)-1-fluoro-12-(((3S,7aS)-3-(((1,1,1,3,3,3-hexafluoropropan-2-yl)oxy)methyl)tetrahydro-1H-pyrrolizin-7a(5H)-yl)methoxy)-4,5,5a,6,7,8,9,10-octahydro-3,10a,11,13,14-pentaaza-6,9-methanonaphtho[1,8-ab]heptalene]
EC50 [1]: 47.2 nM
IC50 [2]: 0.2 nM

C#Cc1c(F)ccc2cccc(-c3nc4c5c(nc(OC[C@@]67CCCN6[C@H](COc6ccnc(C(F)(F)F)n6)CC7)nc5c3F)N3C[C@H]5CC[C@H](N5)[C@H]3CC4)c12 [Example 151, (5aR,6S,9R)-2-(8-ethynyl-7-fluoronaphthalen-1-yl)-1-fluoro-12-(((3S,7aS)-3-(((2-(trifluoromethyl)pyrimidin-4-yl)oxy)methyl)tetrahydro-1H-pyrrolizin-7a(5H)-yl)methoxy)-4,5,5a,6,7,8,9,10-octahydro-3,10a,11,13,14-pentaaza-6,9-methanonaphtho[1,8-ab]heptalene]
EC50 [1]: 5 nM
IC50 [2]: 0.1 nM

C#Cc1c(F)ccc2cccc(-c3nc4c5c(nc(OC[C@@]67CCCN6[C@H](COc6cc(C(F)(F)F)ncn6)CC7)nc5c3F)N3C[C@H]5CC[C@H](N5)[C@H]3CC4)c12 [Example 152, (5aR, 6S, 9R)-2-(8-ethynyl-7-fluoronaphthalen-1-yl)-1-fluoro-12-(((3S,7aS)-3-(((6-(trifluoromethyl)pyrimidin-4-yl)oxy)methyl)tetrahydro-1H-pyrrolizin-7a(5H)-yl)methoxy)-4,5,5a,6,7,8,9,10-octahydro-3,10a,11,13,14-pentaaza-6,9-methanonaphtho[1,8-ab]heptalene]
EC50 [1]: 5.4 nM
IC50 [2]: 0.1 nM

C#Cc1c(F)ccc2cccc(-c3nc4c5c(nc(OC[C@@]67CCCN6[C@H](COc6cc(C(F)(F)F)ncn6)CC7)nc5c3F)N3C[C@H]5CC[C@H](N5)[C@H]3CCC4)c12 [Example 154, (6aR,7S,10R)-2-(8-ethynyl-7-fluoronanhthalen-1-yl)-1-fluoro-13-(((3S,7aS)-3-(((6-(trifluoromethyl)pyrimidin-4-yl)oxy)methyl)tetrahydro-1H-pyrrolizin-7a(5H)-yl)methoxy)-5,6,6a,7,8,9,10,11-octahydro-4H-3,11a,12,14,15-pentaaza-7,10-methanocyclohepta[4,5]cycloocta[1,2,3-de]naphthalene]
EC50 [1]: 1 nM
IC50 [2]: 0.1 nM

C#Cc1c(F)ccc2cccc(-c3nc4c5c(nc(OC[C@@]67CCCN6C[C@H](F)C7)nc5c3F)N3C[C@H]5CC[C@H](N5)[C@@H]3[C@@H](C)CC4)c12 [Example 156, (6S,6aS,7S,10R)-2-(8-ethynyl-7-fluoronaphthalen-1-yl)-1-fluoro-13-(((2R,7aS)-2-fluorotetrahydro-1H-pyrrolizin-7a(5H)-yl)methoxy)-6-methyl-5,6,6a,7,8,9,10,11-octahydro-4H-3,11a,12,14,15-pentaaza-7,10-methanocyclohepta[4,5]cycloocta[1,2,3-de]naphthalene]
EC50 [1]: 100 nM
IC50 [2]: 100 nM

C#Cc1c(F)ccc2cccc(-c3nc4c5c(nc(OCC67CCCN6CCC7)nc5c3F)N3C[C@H]5CC[C@H](N5)[C@@H]3[C@@H](C)C4)c12 [Example 157, (5S,5aS,6S,9R)-2-(8-ethynyl-7-fluoronaphthalen-1-yl)-1-fluoro-5-methyl-12-((tetrahydro-1H-pyrrolizin-7a(5H)-yl)methoxy)-4,5,5a,6,7,8,9,10-octahydro-3,10a,11,13,14-pentaaza-6,9-methanonaphtho[1,8-ab]heptalene]
EC50 [1]: 29.4 nM
IC50 [2]: 6.4 nM

C#Cc1c(F)ccc2cccc(-c3nc4c5c(nc(OCC67CC8(CC8)CN6CC6(CC6)C7)nc5c3F)N3C[C@H]5CC[C@H](N5)[C@@H]3[C@@H](C)C4)c12 [Example 158]
EC50 [1]: 100 nM
IC50 [2]: 12.5 nM

C#Cc1c(F)ccc2cccc(-c3nc4c5c(nc(OC[C@@]67CCCN6C[C@H](F)C7)nc5c3F)N3C[C@H]5CC[C@H](N5)[C@@H]3[C@H](C)CC4)c12 [Example 159, (6R,6aS,7S,10R)-2-(8-ethynyl-7-fluoronaphthalen-1-yl)-1-fluoro-13-(((2R,7aS)-2-fluorotetrahydro-1H-pyrrolizin-7a(5H)-yl)methoxy)-6-methyl-5,6,6a,7,8,9,10,11-octahydro-4H-3,11a,12,14,15-pentaaza-7,10-methanocyclohepta[4,5]cycloocta[1,2,3-de]naphthalene]
EC50 [1]: 100 nM
IC50 [2]: 100 nM

C#Cc1c(F)ccc2cc(O)cc(-c3nc4c5c(nc(OCC6(CN7CC[C@H](OC(F)(F)F)C7)CC6)nc5c3F)N3C[C@H]5CC[C@H](N5)[C@H]3CCC4)c12 [Example 162]
EC50 [1]: 0.5 nM
IC50 [2]: 0.4 nM

C#Cc1c(F)ccc2cc(O)cc(-c3nc4c5c(nc(OC[C@@]67CCCN6[C@H](COCC(F)(F)F)CC7)nc5c3F)N3C[C@H]5CC[C@H](N5)[C@H]3CC4)c12 [Example 163, 5-ethynyl-6-fluoro-4-((5aR,6S,9R)-1-fluoro-12-(((3S,7aS)-3-((2,2,2-trifluoroethoxy)methyl)tetrahydro-1H-pyrrolizin-7a(5H)-yl)methoxy)-4,5,5a,6,7,8,9,10-octahydro-3,10a,11,13,14-pentaaza-6,9-methanonaphtho[1,8-ab]heptalen-2-yl)naphthalen-2-ol]
EC50 [1]: 5.1 nM
IC50 [2]: 0.1 nM

C#Cc1c(F)ccc2cccc(-c3nc4c5c(nc(OC[C@@]67CCCN6[C@H](COCC(F)(F)F)CC7)nc5c3F)N3C[C@H]5CC[C@H](N5)[C@H]3CC4)c12 [Example 164, (5aR,6S,9R)-2-(8-ethynyl-7-fluoronaphthalen-1-yl)-1-fluoro-12-(((3S,7aS)-3-((2,2,2-trifluoroethoxy)methyl)tetrahydro-1H-pyrrolizin-7a(5H)-yl)methoxy)-4,5,5a,6,7,8,9,10-octahydro-3,10a,11,13,14-pentaaza-6,9-methanonaphtho[1,8-ab]heptalene]
EC50 [1]: 38 nM
IC50 [2]: 0.3 nM

C#Cc1c(F)ccc2cccc(-c3nc4c5c(nc(OC[C@@]67CCCN6C[C@H](F)C7)nc5c3F)N3C[C@H]5CC[C@H](N5)[C@H]3CC[C@@H]4C)c12 [Example 174, (4S,6aR,7S,10R)-2-(8-ethynyl-7-fluoronaphthalen-1-yl)-1-fluoro-13-(((2R,7aS)-2-fluorotetrahydro-1H-pyrrolizin-7a(5H)-yl)methoxy)-4-methyl-5,6,6a,7,8,9,10,11-octahydro-4H-3,11a,12,14,15-pentaaza-7,10-methanocyclohepta[4,5]cycloocta[1,2,3-de]naphthalene]
EC50 [1]: 100 nM
IC50 [2]: 5.7 nM

C#Cc1c(F)ccc2cccc(-c3nc4c5c(nc(OCC6(CN7CCC8(CC7)CC8)CC6)nc5c3F)N3C[C@H]5CC[C@H](N5)[C@H]3CCC4)c12 [Example 178, (6aR,7S,10R)-13-((1-((6-azaspiro[2.5]octan-6-yl)methyl)cyclopropyl)methoxy)-2-(8-ethynyl-7-fluoronaphthalen-1-yl)-1-fluoro-5,6,6a,7,8,9,10,11-octahydro-4H-3,11a,12,14,15-pentaaza-7,10-methanocyclohepta[4,5]cycloocta[1,2,3-de]naphthalene]
EC50 [1]: 37.4 nM
IC50 [2]: 0.7 nM

C#Cc1c(F)ccc2cc(O)cc(-c3nc4c5c(nc(OCC6(CN7CCC(Oc8ccnc(C(F)(F)F)n8)CC7)CC6)nc5c3F)N3C[C@H]5CC[C@H](N5)[C@H]3CC4)c12 [Example 180, 5-ethynyl-6-fluoro-4-((5aR,6S,9R)-1-fluoro-12-((1-((4-((2-(trifluoromethyl)pyrimidin-4-yl)oxy)piperidin-1-yl)methyl)cyclopropyl)methoxy)-4,5,5a,6,7,8,9,10-octahydro-3,10a,11,13,14-pentaaza-6,9-methanonaphtho[1,8-ab]heptalen-2-yl)naphthalen-2-ol]
EC50 [1]: 5.1 nM
IC50 [2]: 0.8 nM

C#Cc1c(F)ccc2cccc(-c3nc4c5c(nc(OC[C@@]67CCCN6C[C@H](F)C7)nc5c3F)N3C[C@H]5CC[C@H](N5)[C@H]3C[C@H]4CC)c12 [Example 182, (4R,5aR,6S,9R)-4-ethyl-2-(8-ethynyl-7-fluoronaphthalen-1-yl)-1-fluoro-12-(((2R,7aS)-2-fluorotetrahydro-1H-pyrrolizin-7a(5H)-yl)methoxy)-4,5,5a,6,7,8,9,10-octahydro-3,10a,11,13,14-pentaaza-6,9-methanonaphtho[1,8-ab]heptalene]
EC50 [1]: 87 nM
IC50 [2]: 0.4 nM
